Results: patent US9464113B2, “Anti-heparan sulfate peptides that block herpes simplex virus infection in vivo” (The Board of Trustees of the University of Illinois, priority 2010, dated 2016)
No end group written: not given here.

Columns and labels:
HSV-1 (KOS) gL86 = assay: HSV-1 entry into primary human corneal fibroblasts (CF); format: cell-based, herpes simplex virus type-1; settings: for blocking of HSV-1 entry/infection: human CF, 60 min pre-treatment, 25 pfu/cell, 6 hr
Procedure: HSV-1 entry was assayed as described in Shukla et al., Cell 99:13-22 (1999). CHO-K1 cells were grown in 6-well plates to subconfluence and then transfected with 2.5 μg of expression plasmids for gD receptors nectin-1 (pBG38), HVEM (pBec10), 3-OST-3 isoform (pDS43), or pCDNA3.1 (empty vector) using LipofectAMINE (Gibco/BRL). At 16 h post-transfection, the cells were replated into 96-well dishes for pre-incubation with peptides at different concentrations for 60 min at room temperature. In parallel, natural target cells (HeLa, CF, and RPE) were also pre-treated with the peptides for the same duration. In all cases, unbound peptides were removed after washing 3× with PBS. Thereafter, cells were infected for 6 h with a recombinant virus, HSV-1 (KOS) gL86, at multiple plaque forming units (PFUs) and β-galactosidase assays were performed using either a soluble substrate o-nitrophenyl-β-D-galactopyranoside (ONPG at 3.0 mg/ml; ImmunoPure, Pierce) or X-gal (Sigma). For the soluble substrate, the enzymatic activity was measured at 410 nm using a micro-plate reader (Spectra Max 190, Molecular Devices, Sunnyvale, Calif.). For the X-gal assay, cells were fixed (2% formaldehyde and 0.2% glutaraldehyde) and permeabilized (2 mM MgCl2, 0.01% deoxycholate, and 0.02% nonidet NP-40 (Sigma)). 1 ml of β-galactosidase reagent (1.0 mg/ml X-gal in ferricyanide buffer) was added to each well and incubated at 37° C. for 90 min before the cells were examined using bright field microscopy under the 20× objectives of the inverted microscope (Zeiss Axiovert 100 M).
The ability of the G1 and G2 peptides to block HSV-1 entry into natural target cells (HeLa and primary cultures of human CF) was compared. A similar dosage response curve was generated when HeLa (FIG. 2A) or CF (FIG. 2B) were pre-treated with G1 or G2 peptides during HSV-1 entry. […] HeLa cells (FIG. 2A) and primary cultures of human corneal fibroblasts (CF) (FIG. 2B) were tested. Cells in 96-well plates were pre-treated for 60 min with indicated mM concentrations of G1, G2, or Cp peptides. Mock-treated cells (abbreviated as C) served as a control. Pretreated cells were infected with a β galactosidase-expressing recombinant virus HSV-1 (KOS) HSV-1 gL86 (25 pfu/cell) for 6 hr. Viral entry was quantitated as described above in reference to FIG. 1. Confirmation of HSV-1 entry blocking activity of G1, G2, and control (Cp) peptides on a per cell basis was obtained after cells were infected as described above followed by X-gal (1.0 mg/ml) staining (Right panels), which yields an insoluble blue product upon hydrolysis by β-galactosidase expressed from the input viral genomes. […] Microscopy was performed using a 20× objective of Zeiss Axiovert 100.
To better understand the inhibitory potential of G1 and G2 peptides, synthetic short variants (10-mer) were synthesized that lacked the terminal non-positively charged amino acids. In case of G1, N-terminus L and C-terminus H residues were removed. For G2, the N-terminus flanking residues (M and P) were removed. Without being bound by theory, it is believed that 12-mer peptides are too short to adopt substantial secondary or tertiary structures and that the primary structure of those peptides, which includes a defined sequence or groupings of positively charged residues, plays a critical role in mediating inhibition of HSV-1 entry. Synthetic 10-mer versions of G1 and G2 (shown above) were tested for blocking HSV-1(KOS)gL86 entry into cultured CF. After 6 h, the viral entry was measured by ONPG assay as described in FIG. 1.
Alanine (A) scanning mutagenesis was performed to identify specific amino acid residues responsible for each peptide's function, stability, and conformation. O'Nuallain et al., Biochemistry 46:13049-13058 (2007). Twelve synthetic peptides were made whereby each residue of G2 was sequentially replaced with an alanine residue and corresponding changes in the G2 peptide were evaluated for their ability to affect viral entry (FIG. 4B). […]

[1] = system: GFP-expressing HHV-8 (rHHV-8.152); assay: HHV-8 infection assay in HCjE cells; format: cell-based, human herpesvirus-8; settings: for GFP-expression of HHV-8 (RFU): 48 h, fluorescence reader (FIG. 5C); for fluorescence from GFP virus replication (microscopy): fluorescent microscope (FIG. 5D)
Procedure: HCjE cells grown in chamber slides (Labteck) or in a 96 well plate were pre-treated with G1, G2, or control peptides for 60 min at room temperature followed by inoculation with recombinant rHHV-8.152, expressing the green fluorescent protein (GFP). Viera et al., J. Virol. 72:5182-5188 (2000). 48-hr post-infection, GFP-positive cells were visualized under microscope (Zeiss Axioverst 100M). HHV-8 infection was determined as relative fluorescence units (RFU) using GENios Pro plate reader (TECAN) at 480-nm excitation and 520-nm emission frequencies. Five measurements of negative control, positive control, and the test samples were performed. Data were expressed as mean±SD.
The ability to block HHV-8 infection was examined in human conjunctival epithelial (HCjE) cells, a natural target for HHV-8 infection. Human conjunctival (HCjE) cells were pre-incubated with G1, G2 or control peptide (Cp) were infected with HHV-8 virions for 48 h at 37° C. After incubation the cells were washed thoroughly to remove unbound viruses. GFP-expression of HHV-8 was quantitated by determining relative fluorescence units (RFU) using a 96-well fluorescence reader (TECAN). Emission of fluorescence indicates virus infection. […] This was confirmed by examination of individual cells by fluorescence microscopy.
Viral replication in HCjE cells was visualized under fluorescent microscope (Zeiss Axiovert 100) in cells that were pretreated with G1, G2 or Cp, as described above (FIG. 5D). Asterisks indicate significant difference from controls and/or treatments (P<0.05, t test) and error bars represent SD. […] G1 may have some activity but the virus can possibly overcome it easily.

Sequence	blocking of HSV-1 entry/infection (HSV-1 (KOS) gL86)	GFP-expression of HHV-8 (RFU) [1]	fluorescence from GFP virus replication (microscopy) [1]	activity normalized against wild-type G2 (higher than 1 = loss of activity) (HSV-1 (KOS) gL86; alanine scanning, FIG. 4B)
LRSRTKIIRIRH [G1, LRSRTKIIRIRH]	effective in blocking infection of individual cells	not found to be statistically significant	fluorescence was more easily seen	–
MPRRRRIRRRQK [G2, MPRRRRIRRRQK]	effective in blocking infection of individual cells	relatively low GFP-expression	did not show fluorescence	1.00
RVCGSIGKEVLG [Cp, reference compound]	no effect on HSV-1 entry	–	fluorescence was more easily seen	–
